Data on one molecule can be found in patent US11458077B2, “Two-phase cosmetic composition comprising a 4-(3-alkoxy-4-hydroxyphenyl)alkyl ketone” (L'OREAL, priority 2017, dated 2022).

Molecules are shown by their SMILES.

The data set can be described thus: Solubility of the ketone compound. Type of data set: physicochemical.

On to `CCOc1cc(CCC(C)=O)ccc1O` [ketone compound, 4-(3-Ethoxy-4-hydroxyphenyl)butan-2-one], for which the solubility in glycerol result (glycerol) is given as “very low solubility”. Also, the solubility in water entry (water) is “very low solubility”.
